Data taken from ChEMBL document CHEMBL1201862, “PubChem BioAssay data set” (2004).
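Exposure lasted 48 hours, with cells grown in 96-well plates and compounds tested at five concentrations. At the GI50, growth is halved.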 Activity calls are given as the source filed them. Cut-off read from the data, not from the text of the source: active = GI50 up to about 1.1 µM and inactive = higher.

Tests used:
Experiment in all cases: NCI anticancer screen, dose series, 48 h
PC-3 = test system: PC-3
TK-10 = test system: TK-10
KM12 = test system: KM12
Malme-3M = test system: Malme-3M
MDA-MB-231 = test system: MDA-MB-231
SK-OV-3 = test system: SK-OV-3
A549 = test system: A549
OVCAR-3 = test system: OVCAR-3
UO-31 = test system: UO-31
IGROV-1 = test system: IGROV-1
CAKI-1 = test system: CAKI-1
EKVX = test system: EKVX
NCI-H460 = test system: NCI-H460
Hs-578T = test system: Hs-578T
HOP-92 = test system: HOP-92
SF-295 = test system: SF-295
SNB-75 = test system: SNB-75
SW-620 = test system: SW-620
CCRF-CEM = test system: CCRF-CEM
RXF 393 = test system: RXF 393
SK-MEL-5 = test system: SK-MEL-5
DU-145 = test system: DU-145
OVCAR-8 = test system: OVCAR-8
SN12C = test system: SN12C
RPMI-8226 = test system: RPMI-8226
SK-MEL-28 = test system: SK-MEL-28
SR = test system: SR
M14 = test system: M14
HT-29 = test system: HT-29
HCT-116 = test system: HCT-116
MCF7 = test system: MCF7
OVCAR-5 = test system: OVCAR-5
K562 = test system: K562
HOP-62 = test system: HOP-62
OVCAR-4 = test system: OVCAR-4
HCC 2998 = test system: HCC 2998
U-251 = test system: U-251
SF-268 = test system: SF-268
ACHN = test system: ACHN
MOLT-4 = test system: MOLT-4
NCI/ADR-RES = test system: NCI/ADR-RES
UACC-62 = test system: UACC-62
MDA-N = test system: MDA-N
SK-MEL-2 = test system: SK-MEL-2
SNB-19 = test system: SNB-19
NCI-H226 = test system: NCI-H226
BT-549 = test system: BT-549
T47D = test system: T47D
HL-60 = test system: HL-60
SF-539 = test system: SF-539
786-0 = test system: 786-0
HCT-15 = test system: HCT-15
COLO 205 = test system: COLO 205
UACC-257 = test system: UACC-257
MDA-MB-435 = test system: MDA-MB-435
NCI-H23 = test system: NCI-H23
A498 = test system: A498
NCI-H522 = test system: NCI-H522
LOX IMVI = test system: LOX IMVI

Structure (SMILES): O=C(O)Cc1ccc(/N=N/c2c(O)c(C(=O)O)cc3ccccc23)cc1
- GI50 (PC-3): > 100 µM (inactive)
- GI50 (TK-10): > 100 µM (inactive)
- GI50 (KM12): > 100 µM (inactive)
- GI50 (Malme-3M): 24.8 µM (inactive)
- GI50 (MDA-MB-231): > 100 µM (inactive)
- GI50 (SK-OV-3): > 100 µM (inactive)
- GI50 (A549): > 100 µM (inactive)
- GI50 (OVCAR-3): > 100 µM (inactive)
- GI50 (UO-31): > 100 µM (inactive)
- GI50 (IGROV-1): > 100 µM (inactive)
- GI50 (CAKI-1): > 100 µM (inactive)
- GI50 (EKVX): > 100 µM (inactive)
- GI50 (NCI-H460): > 100 µM (inactive)
- GI50 (Hs-578T): > 100 µM (inactive)
- GI50 (HOP-92): > 100 µM (inactive)
- GI50 (SF-295): > 100 µM (inactive)
- GI50 (SNB-75): > 100 µM (inactive)
- GI50 (SW-620): > 100 µM (inactive)
- GI50 (CCRF-CEM): > 100 µM (inactive)
- GI50 (RXF 393): > 100 µM (inactive)
- GI50 (SK-MEL-5): 71.8 µM (inactive)
- GI50 (DU-145): > 100 µM (inactive)
- GI50 (OVCAR-8): > 100 µM (inactive)
- GI50 (SN12C): > 100 µM (inactive)
- GI50 (RPMI-8226): > 100 µM (inactive)
- GI50 (SK-MEL-28): > 100 µM (inactive)
- GI50 (SR): > 100 µM (inactive)
- GI50 (M14): > 100 µM (inactive)
- GI50 (HT-29): > 100 µM (inactive)
- GI50 (HCT-116): > 100 µM (inactive)
- GI50 (MCF7): > 100 µM (inactive)
- GI50 (OVCAR-5): > 100 µM (inactive)
- GI50 (K562): > 100 µM (inactive)
- GI50 (HOP-62): > 100 µM (inactive)
- GI50 (OVCAR-4): > 100 µM (inactive)
- GI50 (HCC 2998): > 100 µM (inactive)
- GI50 (U-251): > 100 µM (inactive)
- GI50 (SF-268): > 100 µM (inactive)
- GI50 (ACHN): > 100 µM (inactive)
- GI50 (MOLT-4): > 100 µM (inactive)
- GI50 (NCI/ADR-RES): > 100 µM (inactive)
- GI50 (UACC-62): > 100 µM (inactive)
- GI50 (MDA-N): > 100 µM (inactive)
- GI50 (SK-MEL-2): > 100 µM (inactive)
- GI50 (SNB-19): > 100 µM (inactive)
- GI50 (NCI-H226): > 100 µM (inactive)
- GI50 (BT-549): > 100 µM (inactive)
- GI50 (T47D): > 100 µM (inactive)
- GI50 (HL-60): > 100 µM (inactive)
- GI50 (SF-539): > 100 µM (inactive)
- GI50 (786-0): > 100 µM (inactive)
- GI50 (HCT-15): > 100 µM
- GI50 (COLO 205): > 100 µM (inactive)
- GI50 (UACC-257): > 100 µM (inactive)
- GI50 (MDA-MB-435): > 100 µM (inactive)

Structure (SMILES): Cc1ccccc1/N=N/c1c(O)c(S(=O)(=O)O)cc2cc(S(=O)(=O)O)ccc12
- GI50 (PC-3): > 100 µM (inactive)
- GI50 (TK-10): > 100 µM (inactive)
- GI50 (KM12): > 100 µM (inactive)
- GI50 (Malme-3M): > 100 µM (inactive)
- GI50 (MDA-MB-231): > 100 µM (inactive)
- GI50 (SK-OV-3): > 100 µM (inactive)
- GI50 (A549): > 100 µM (inactive)
- GI50 (OVCAR-3): > 100 µM (inactive)
- GI50 (UO-31): > 100 µM (inactive)
- GI50 (IGROV-1): > 100 µM (inactive)
- GI50 (CAKI-1): > 100 µM (inactive)
- GI50 (EKVX): > 100 µM (inactive)
- GI50 (NCI-H460): > 100 µM (inactive)
- GI50 (NCI-H23): > 100 µM (inactive)
- GI50 (Hs-578T): > 100 µM (inactive)
- GI50 (HOP-92): > 100 µM (inactive)
- GI50 (SF-295): > 100 µM (inactive)
- GI50 (SNB-75): 70.1 µM (inactive)
- GI50 (SW-620): > 100 µM (inactive)
- GI50 (A498): > 100 µM (inactive)
- GI50 (CCRF-CEM): > 100 µM (inactive)
- GI50 (RXF 393): > 100 µM (inactive)
- GI50 (SK-MEL-5): > 100 µM (inactive)
- GI50 (DU-145): > 100 µM (inactive)
- GI50 (OVCAR-8): > 100 µM (inactive)
- GI50 (SN12C): > 100 µM (inactive)
- GI50 (SK-MEL-28): > 100 µM (inactive)
- GI50 (SR): > 100 µM (inactive)
- GI50 (M14): > 100 µM (inactive)
- GI50 (HT-29): > 100 µM (inactive)
- GI50 (HCT-116): > 100 µM (inactive)
- GI50 (MCF7): > 100 µM (inactive)
- GI50 (NCI-H522): > 100 µM (inactive)
- GI50 (OVCAR-5): > 100 µM (inactive)
- GI50 (K562): > 100 µM (inactive)
- GI50 (HOP-62): > 100 µM (inactive)
- GI50 (OVCAR-4): > 100 µM (inactive)
- GI50 (HCC 2998): > 100 µM (inactive)
- GI50 (U-251): > 100 µM (inactive)
- GI50 (SF-268): > 100 µM (inactive)
- GI50 (ACHN): > 100 µM (inactive)
- GI50 (MOLT-4): > 100 µM (inactive)
- GI50 (NCI/ADR-RES): > 100 µM (inactive)
- GI50 (UACC-62): > 100 µM (inactive)
- GI50 (MDA-N): > 100 µM (inactive)
- GI50 (SK-MEL-2): > 100 µM (inactive)
- GI50 (SNB-19): > 100 µM (inactive)
- GI50 (NCI-H226): > 100 µM (inactive)
- GI50 (BT-549): > 100 µM (inactive)
- GI50 (T47D): > 100 µM (inactive)
- GI50 (HL-60): > 100 µM (inactive)
- GI50 (SF-539): > 100 µM (inactive)
- GI50 (786-0): > 100 µM (inactive)
- GI50 (HCT-15): > 100 µM
- GI50 (COLO 205): > 100 µM (inactive)
- GI50 (UACC-257): > 100 µM (inactive)
- GI50 (MDA-MB-435): > 100 µM (inactive)

Structure (SMILES): CC(C)=CCC1=C(OCC(=O)O)C(=O)c2ccccc2C1=O
- GI50 (PC-3): 31.3 µM (inactive)
- GI50 (TK-10): > 100 µM (inactive)
- GI50 (KM12): 25.2 µM (inactive)
- GI50 (Malme-3M): 19.3 µM (inactive)
- GI50 (MDA-MB-231): 49.8 µM (inactive)
- GI50 (SK-OV-3): 67.9 µM (inactive)
- GI50 (A549): 30.8 µM (inactive)
- GI50 (UO-31): 28 µM (inactive)
- GI50 (IGROV-1): 39.1 µM (inactive)
- GI50 (CAKI-1): 52.5 µM (inactive)
- GI50 (EKVX): 37.1 µM (inactive)
- GI50 (NCI-H460): 34.5 µM (inactive)
- GI50 (NCI-H23): 33 µM (inactive)
- GI50 (Hs-578T): 22.2 µM (inactive)
- GI50 (HOP-92): 47.4 µM (inactive)
- GI50 (SF-295): 11.9 µM (inactive)
- GI50 (LOX IMVI): 32.6 µM (inactive)
- GI50 (SNB-75): 24.4 µM (inactive)
- GI50 (SW-620): 23 µM (inactive)
- GI50 (A498): 76.7 µM (inactive)
- GI50 (CCRF-CEM): 23.9 µM (inactive)
- GI50 (RXF 393): 31.9 µM (inactive)
- GI50 (SK-MEL-5): 19.5 µM (inactive)
- GI50 (DU-145): 33.5 µM (inactive)
- GI50 (OVCAR-8): 38.5 µM (inactive)
- GI50 (SN12C): 24.5 µM (inactive)
- GI50 (RPMI-8226): 24.1 µM (inactive)
- GI50 (SK-MEL-28): 35 µM (inactive)
- GI50 (SR): 34.3 µM (inactive)
- GI50 (M14): 33 µM (inactive)
- GI50 (HT-29): 47.2 µM (inactive)
- GI50 (HCT-116): 22.6 µM (inactive)
- GI50 (MCF7): 25.1 µM (inactive)
- GI50 (NCI-H522): 23.6 µM (inactive)
- GI50 (K562): 33 µM (inactive)
- GI50 (HOP-62): 40.9 µM (inactive)
- GI50 (OVCAR-4): 31.9 µM (inactive)
- GI50 (U-251): 30.3 µM (inactive)
- GI50 (SF-268): 22.3 µM (inactive)
- GI50 (ACHN): 39.4 µM (inactive)
- GI50 (MOLT-4): 15.9 µM (inactive)
- GI50 (NCI/ADR-RES): 32.1 µM (inactive)
- GI50 (UACC-62): 19 µM (inactive)
- GI50 (MDA-N): 17.9 µM (inactive)
- GI50 (SK-MEL-2): 25.7 µM (inactive)
- GI50 (SNB-19): 27.9 µM (inactive)
- GI50 (NCI-H226): 32.4 µM (inactive)
- GI50 (BT-549): 29.9 µM (inactive)
- GI50 (T47D): 31.5 µM (inactive)
- GI50 (HL-60): 14.5 µM (inactive)
- GI50 (SF-539): 27.2 µM (inactive)
- GI50 (786-0): 41.1 µM (inactive)
- GI50 (HCT-15): 39.4 µM
- GI50 (COLO 205): 60.3 µM (inactive)
- GI50 (UACC-257): 29.1 µM (inactive)
- GI50 (MDA-MB-435): 15.5 µM (inactive)
